“Also recorded” adds a separate entry of the source. Counter-ions that a name gives are not always drawn.

The subject of data set [1] is rats having alloxan diabetes. In words: histological examination and biomicroscopy in rats with prolonged alloxan diabetes. In kind it is in vivo, Wistar rats. The settings on record: for biochemical and morphological indices: experimental animals. On the procedure:
The diabetes was caused by a single-time hypodermic injection of alloxan ("Chemapol") in a dose of 150 mg per kg of body weight.
Biomicroscopy of the conjunctiva was effected with the aid of a microscope fitted with a camera and a flash lamp.
For histological examination pieces of the kidney, liver and miocardium were fixed in 10% neutral formaline dehydrated in alcohol, and the paraffin sections were stained with hematoxylin and eosin, and also by the Van-Gizon method.

Data set [2] is described as follows: solubility of the acid and its salts. The format is physicochemical.
Another data set has as its system aldose reductase. The experiment in a line: activity of aldose reductase in tissues of animals with alloxan diabetes. In kind it is in vivo, Wistar rats. The settings on record: for inhibition of aldose reductase: tissues of the experimental animals; for Activity of aldose reductase: alloxan diabetes + compound. On the procedure: (§1) The experiments were conducted on Wistar rats (males) having a weight of 140 to 160 g. The diabetes was caused by a single-time hypodermic injection of alloxan ("Chemapol") in a dose of 150 mg per kg of body weight.
(§2) The glood glucose was determined by applying a glucoseoxidase method, cholesterine by […], aldose reductase by the method of Hayman and Kinoshita, sorbitol by a sorbitol-dehydrogenase method.

Data set [3] has as its system basal membrane of the muscle capillaries. In words: thickness of capillary basal membrane of limb muscles (electron microscope) in rats with alloxan diabetes. The format is in vivo, Wistar rats. The settings on record: for biological activity compared with 1,3-dioxo-1H-benz(de)isoquinoline-2(3H)acetic acid: comparison with prior art compound; for average thickness of the capillary basal membrane of the limb muscles, after administration (M): rats, alloxan diabetes, end of the experiment; for thickness of the basal membrane of the muscle capillaries: after treatment.

In data set [4] the test system is Dogs. In words: chronic toxicity, 6 months peroral, dogs. The note with it: in the dogs only. On the procedure: (§3) The experiments were performed on rats, rabbits, and dogs.
(§4) In addition, the action of the proposed drug on the carbohydrate and uropoiesis functions of the liver was also examined.
(§5) The above indices were examined at the beginning of the experiment and then after 1, 2, 3, 4, 5, and 6 months.
(§6) At the end of the experiments there were carried out pathomorphological examinations of the lungs, heart, liver, kidneys, adrenal glands, spleen, lymph nodes, intestine, stomach, pancreas, and thyroid glands.
(§7) On completion of the experiment (six months) the experimental animals were killed: the dogs were killed with thiopental, the rabbits with aeroembolism, and the rats with diethyl ether. Thereafter, the lungs, heart, liver, kidneys, adrenal glands, spleen, lymph nodes, intestine, pancreas and thyroid gland of the killed animals were examined. The material thus obtained was fixed in formole. There were prepared paraffin sections which were then stained with hematoxylin and eosin.

The test system of another data set is rats, rabbits, and dogs. The settings on record: in vivo. As to the method: as §3, §4, §5, §6, §7
Data set [5] concerns Rats. The note with it: rat, in vivo. On the procedure:
as §3, §4, §5, §6, §7

In data set [6] the test system is white mice, rats, and dogs. In words: acute ("high") toxicity, symptoms and overall assessment in mice, rats and dogs. On the procedure:
(§8) Mature animals both male and female, weighting 18 to 22 g (white mice), 180 to 220 g (rats), 11 to 15 kg (dogs) were used for said experiments.
(§9) The drug was introduced in the form of a starch suspension through a gastric tube.
(§10) Each dose being examined was tested on 5-6 animals.
(§11) LD50 determined by the Lichfield and Wilcoxon method, or the Van der Waerden method was used as an index of high toxicity. The animals were kept under observation for 5 days.

The test system of data set [7] is Rats. The experiment in a line: acute ("high") toxicity, peroral, rats. As to the method: as §8, §9, §10, §11
The nature of data set [8]: blood indices (fructose, cholesterin, glucose) in rats with alloxan diabetes. In kind it is in vivo, Wistar rats. As to the method:
as §1, §2

Data set [9] has as its system sorbitol and fructose in tissues. The experiment in a line: sorbitol and fructose in tissues of animals with alloxan diabetes. The format is in vivo, Wistar rats. The settings on record: for Fructose / Sorbitol: alloxan diabetes. As to the method:
as §1, §2

Data set [10] deals with Dogs. In words: acute ("high") toxicity, peroral, dogs. The settings on record: dosage 5500. As to the method: as §8, §9, §10, §11
The test system of a further data set is White mice. The experiment in a line: acute ("high") toxicity, peroral, white mice. As to the method: as §8, §9, §10, §11

Regarding `O=C(O)CCCN1C(=O)c2cccc3cccc(c23)C1=O` [Potassium salt, potassium salt of 1,3-dioxo-1H-benz(de)isoquinoline-2(3H)butyric acid], the “biochemical and morphological indices” value in [1] was “considerable improvements”. In [2], the solubility in benzole entry is recorded as “insoluble”, the “solubility in ethyl alcohol” value is on record as “soluble” and the solubility in water result is on record as “readily soluble”. Besides, the “inhibition of aldose reductase” value in the data set on aldose reductase was “inhibiting properties with respect to aldose reductase; also recorded: inhibitors of aldose reductase”. For the same compound, in [3], the “biological activity compared with 1,3-dioxo-1H-benz(de)isoquinoline-2(3H)acetic acid” value was “biologically more active than the prior art compound” and the “average thickness of the capillary basal membrane of the limb muscles, after administration (M)” value (“average thickness” below) stood at 98.6 nanometers.
As to `O=C(O)CCCN1C(=O)c2cccc3cccc(c23)C1=O` [1,3-dioxo-1H-benz(de)isoquinoline-2(3H)butyric acid], the kidney histology entry in [1] (50 mg per kg per day, 30 days) was “renal glomerulus became more plethoric, the epithelium of the tubules had a more clearly defined boundary, and the protoplasm became less vacuolized and granular”. Further, the liver histology entry in [1] (50 mg per kg per day, 30 days) was “structure of the lobes and radial location of trabeculas in the liver became clearly defined”. The myocardium histology result in [1] (50 mg per kg per day, 30 days) is “Dystrophic lesion in the myocardium was less pronounced”. For the same compound, the “vascular pattern of the iris” value in data set [1] (50 mg per kg per day, 30 days) is “Inflation and convolution of the vessels decreased, and the blood flow became homogeneous”. Further, in data set [1], the “biochemical and morphological indices” value is on record as “considerable improvements”. The “vessel permeability in the renal glomerulus” value in the data set on Dogs [4] was “elevated vessel permeability in the renal glomerulus”. In addition, in the data set on rats, rabbits, and dogs, the “changes in the anthropological data” value is “no changes in the anthropological data”. The “irritating action on the liver and kidneys” value in the data set on rats, rabbits, and dogs is “slight non-specific irritating action on the liver and kidneys”. Further, in the data set on rats, rabbits, and dogs, the “lesions in the liver and kidneys” value is “slight lesions in the liver and kidneys”. In addition, the lesions on dissection result with rats, rabbits, and dogs is on record as “no lesions”. Also, in the data set with rats, rabbits, and dogs, the “local lesion in the liver and kidneys” value is “slight local lesion in the liver and kidneys”. Moreover, in the data set on rats, rabbits, and dogs, the “morphological lesions in organs” value was “did not cause morphological lesions in many organs”. In addition, the “change in blood-formation function, composition of the peripheric blood and urogenous function of the liver” value in the data set on Rats [5] is reported as “did not lead to a change”. Moreover, the “time until animals laid down on the side, comatose” value in [6] (acute lethal poisoning) is 6 to 8 h. In data set [6] (as a rule, during the first 24-26 hours), the “time within which the animals died” value is 24 to 26 h. Besides, the “overall acute toxicity assessment” value in data set [6] (peroral) is listed as “substance with low-toxicity”. Further, in data set [2] (alcohol, when heated), the solubility in alcohol result is given as “soluble”. Further, the solubility in dimethyl-formamide entry in [2] (dimethyl-formamide, when heated) is “soluble”. For the same compound, the “solubility in soda and alkali solutions” value in data set [2] (soda and alkali solutions) is “soluble in soda and alkali solutions”. Moreover, the solubility in water result in data set [2] is recorded as “water-insoluble”. The “Activity of aldose reductase” value in the data set with aldose reductase (Aorta) is listed as 7.4 ± 0.8 μmol substruct. per mg of protein; with aldose reductase (Cryst. lens) it was 3.4 ± 0.30 μmol substruct. per mg of protein; in the data set on aldose reductase (Nerve) it was 25.5 ± 2.1 μmol substruct. per mg of protein. Further, the “inhibition of aldose reductase” value with aldose reductase is reported as “inhibiting properties with respect to aldose reductase; also recorded: inhibitors of aldose reductase”. The “Percentage of animal death (died/in group)” value (from here on “Percentage of animal death”) is 0/5 in the data set with Rats [7] (dosage 3000); 2/5 with Rats [7] (dosage 3500); 1/4 in the data set with Rats [7] (dosage 4000); 3/5 with Rats [7] (dosage 4500); 4/7 in the data set with Rats [7] (dosage 5000); 4/5 with Rats [7] (dosage 5500). In addition, the “Percentage of animal death” value in the data set with Rats [7] (dosage 6000) is on record as 5/5; in the data set on Dogs [10] it was 3/5; with White mice (dosage 3750), 3/5; with White mice (dosage 4000), 2/5; with White mice (dosage 4500) it was 4/5; in the data set with White mice (dosage 4750) it was 5/5. In addition, the “Percentage of animal death” value with White mice (dosage 5000) is on record as 3/5; in the data set with White mice (dosage 5250), 5/5. Also, the “change of the level of glucose (blood)” value in data set [8] was “did not change”. Also, in data set [8] (p<0.005), the “cholesterin (blood)” value worked out at 100±7.1 mg %. The “fructose (blood)” value in [8] (p<0.02) was 2.26±0.16 mg %. For the same compound, the “level of glucose (blood)” value in data set [8] (p<0.5) is on record as 340.1±27.8 mg %. The Fructose in data set [9] (Cryst. lens) is 2.85 ± 0.56 μmol per g of tissue; in data set [9] (Nerve) it was 3.25 ± 0.73 μmol per g of tissue. Further, the Sorbitol in [9] (Cryst. lens) is listed as 7.18 ± 0.65 μmol per g of tissue; in [9] (Nerve) it was 9.8 ± 0.94 μmol per g of tissue. For the same compound, the “quantity of sorbitol and fructose in the examined tissues” value in [9] (Table 5) was “has decreased”. Further, the “decrease of thickness of the basal membrane of the muscle capillaries” value in data set [3] (50 mg per kg per day, 30 days) was “almost one and a half times”. In addition, the microangiopathy entry in [3] (50 mg per kg per day, 30 days) is “Microangiopathy became less pronounced”. Besides, the “biological activity compared with 1,3-dioxo-1H-benz(de)isoquinoline-2(3H)acetic acid” value in data set [3] is recorded as “biologically more active than the prior art compound”. The figures for the “thickness of the basal membrane of the muscle capillaries” value in data set [3] (rats having alloxan diabetes for 12 months) and in [3] (rats having six months alloxan diabetes) were 100-120 nm and 65 nm, respectively. Further, the “average thickness” value in data set [3] is on record as 98.3 nanometers.
Turning to `O=C(O)CN1C(=O)c2cccc3cccc(c23)C1=O` [1,3-dioxo-1H-benz(de)isoquinoline-2(3H)acetic acid, reference compound], in [3], the “average thickness” value was 112 nanometers.
As to `O=C(O)CCCN1C(=O)c2cccc3cccc(c23)C1=O` [Sodium salt, sodium salt of 1,3-dioxo-1H-benz(de)isoquinoline-2(3H)butyric acid], the “biochemical and morphological indices” value in [1] is on record as “considerable improvements”. Moreover, in data set [2], the solubility in benzole entry is on record as “insoluble”, the “solubility in ethyl alcohol” value is recorded as “slightly soluble” and the solubility in water result was “readily soluble”. The “inhibition of aldose reductase” value with aldose reductase is on record as “inhibiting properties with respect to aldose reductase; also recorded: inhibitors of aldose reductase”. In [3], the “biological activity compared with 1,3-dioxo-1H-benz(de)isoquinoline-2(3H)acetic acid” value is recorded as “biologically more active than the prior art compound” and the “average thickness” value worked out at 102 nanometers.

(Values after patent publication US4598081A, “1,3-dioxo-1H-benz(de)isoquinoline-2(3H) butyric acid, pharmacologically acceptable salts thereof and compositions containing the same for treatment of diabetes mellitus complications” (Nauchno-Issledovatelsky Institut Endokrinologii I Obmena …, priority 1985, dated 1986).)
